Earlier results as cited in US20050008633A1, “Chemical and physical modulators of bioavailability of inhaled compositions” (Advanced Inhalation Research Inc., priority 2003, published 2005).

Tests used:
[1] = test system: rat alveolar epithelial cell monolayers; settings: rat pneumocyte monolayers
[2] = intratracheal instillation in animals, absorption over many hours

Substance	Jmax (i.e., maximum flux) ([1]; net absorption of intact F-Alb)	Kt (i.e., K(1)) of net absorption of intact F-Alb ([1]; simple saturable process)	bioavailability [2]
F-Alb: fluorescein isothiocyanate (FITC)-labeled bovine serum albumin	~0.15 fmol.cm^−2.s^−1	~1.6 µM	–
immunoglobulin G	–	–	lower than 5%
